# In patent US11814445B2, “Cyclic polypeptides for PCSK9 inhibition” (Ra Pharmaceuticals, Inc., priority 2018, dated 2023):
# Numbered stars: 1 amine (or outer) side, 2 acyl side, 3 side chain; on linkers, the order of the positions; unused ones are H or OH. Bridge positions count the residues as written; N and C are the ends. Square brackets hold non-standard residues; d marks the D form. Peptide text beside a SMILES is read from it. ξ: configuration not given here. Phe(4-CF3) = N[C@@H](Cc1ccc(C(F)(F)F)cc1)C(=O)O; Trp(5-F) = N[C@@H](Cc1c[nH]c2ccc(F)cc12)C(=O)O; Pro(trans-4-F) = O=C(O)[C@@H]1C[C@@H](F)CN1; Phe(3-Cl) = N[C@@H](Cc1cccc(Cl)c1)C(=O)O; Phe(4-Cl) = N[C@@H](Cc1ccc(Cl)cc1)C(=O)O; Pro(cis-4-F) = O=C(O)[C@@H]1C[C@H](F)CN1; αMeW = C[C@](N)(Cc1c[nH]c2ccccc12)C(=O)O; X1 = O=C(CCSCc1cccc(CSCCN[*:1])c1)[*:2]; mXylylene = c1cc(C[*:1])cc(C[*:2])c1; NBzl(4-I)Gly = O=C(O)CNCc1ccc(I)cc1; NMeY = CN[C@@H](Cc1ccc(O)cc1)C(=O)O; Igl = N[C@H](C(=O)O)C1Cc2ccccc2C1; NMeF = CN[C@@H](Cc1ccccc1)C(=O)O; 2Pal = N[C@@H](Cc1ccccn1)C(=O)O; 3Pal = N[C@@H](Cc1cccnc1)C(=O)O; 4Pal = N[C@@H](Cc1ccncc1)C(=O)O; αMeP = C[C@@]1(C(=O)O)CCCN1; ΔPro = O=C(O)[C@@H]1C=CCN1; Pip = O=C(O)[C@@H]1CCCCN1; Ac5c = NC1(C(=O)O)CCCC1; Thp = NC1(C(=O)O)CCOCC1; ξP = O=C(O)C1CCCN1; Mpa = O=C(O)CCS
# Target: human PCSK9 / human LDLR EGFa domain (Homo sapiens, UniProt Q8NBP7)
# Sequence (Q8NBP7 153-692): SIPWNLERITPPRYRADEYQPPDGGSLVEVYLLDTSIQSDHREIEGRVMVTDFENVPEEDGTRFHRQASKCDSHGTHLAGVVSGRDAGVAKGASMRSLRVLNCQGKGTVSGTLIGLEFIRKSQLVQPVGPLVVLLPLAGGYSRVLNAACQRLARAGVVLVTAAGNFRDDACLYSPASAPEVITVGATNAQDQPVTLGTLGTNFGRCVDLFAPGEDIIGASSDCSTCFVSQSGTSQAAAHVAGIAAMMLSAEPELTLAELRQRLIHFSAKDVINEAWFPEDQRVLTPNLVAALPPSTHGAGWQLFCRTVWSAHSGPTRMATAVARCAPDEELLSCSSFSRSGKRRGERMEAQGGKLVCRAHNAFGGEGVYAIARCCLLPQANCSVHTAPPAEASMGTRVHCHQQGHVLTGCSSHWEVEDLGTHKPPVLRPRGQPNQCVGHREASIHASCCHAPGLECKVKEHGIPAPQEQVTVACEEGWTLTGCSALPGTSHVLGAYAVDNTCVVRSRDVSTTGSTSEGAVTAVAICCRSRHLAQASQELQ
# Assay: TR-FRET assay of inhibition of the PCSK9-LDLR protein-protein interaction
# Type: binding
# Settings: 20 nM human PCSK9, 20 nM human LDLR EGFa domain, 2 hours room temperature
# Method: A time-resolved fluorescence resonance energy (TR-FRET) assay was used to measure inhibition of the PCSK9-LDLR protein-protein interaction. Briefly, 20 nM avitag-biotinylated human PCSK9 was incubated with 20 nM his-tagged human LDLR EGFa domain in the presence of 5 nM LANCE Ulight Streptavidin (Perkin Elmer) and 5 nM europium-Anti-6×His (Perkin Elmer) for 2 hours covered at room temperature in buffer containing 50 mM HEPES, 150 mM NaCl, 5 mM CaCl2), 0.01% BSA and 0.01% Surfactant P20. Compounds were tested in dose-response and concentrations giving half-maximal inhibition calculated using a 4-parameter fit equation.
row,Structure (SMILES),IC50 [nM]
1,C[C@@H]1NC(=O)[C@@H]2C[C@H](F)CN2C(=O)[C@H](Cc2c[nH]c3ccc(F)cc23)NC(=O)[C@H](Cc2c[nH]c3ccc(F)cc23)NC(=O)CNC(=O)[C@H](CCCCN)NC(=O)CCSCc2cccc(c2)CSC[C@@H](C(N)=O)NC(=O)[C@@H]2CCCN2C(=O)[C@H](Cc2ccc(O)cc2)NC1=O [Compound 002] ([Mpa]KG[Trp(5-F)][Trp(5-F)][Pro(cis-4-F)]AYPC-NH2; linker 1-10 via mXylylene),1 to 100
2,C[C@@H]1NC(=O)[C@@H]2CCCN2C(=O)[C@H](Cc2c[nH]c3ccc(F)cc23)NC(=O)[C@H](Cc2c[nH]c3ccc(F)cc23)NC(=O)[C@@H](C)NC(=O)[C@H](CCCCN)NC(=O)CCSCc2cccc(c2)CSCCNC(=O)[C@]2(C)CCCN2C(=O)[C@H](Cc2ccc(O)cc2)NC1=O [Compound 003] (cyclo(AY[αMeP][X1]K[dA][Trp(5-F)][Trp(5-F)]P)),1000 to 12100
3,C[C@@H]1NC(=O)[C@@H]2CCCN2C(=O)[C@H](Cc2ccc(Cl)cc2)NC(=O)[C@H](Cc2c[nH]c3ccc(F)cc23)NC(=O)CNC(=O)[C@H](CCCCN)NC(=O)CCSCc2cccc(c2)CSC[C@@H](C(N)=O)NC(=O)[C@@H]2CCCN2C(=O)[C@H](Cc2ccc(O)cc2)NC1=O [Compound 004] ([Mpa]KG[Trp(5-F)][Phe(4-Cl)]PAYPC-NH2; linker 1-10 via mXylylene),1000 to 12100
4,C[C@@H]1NC(=O)[C@@H]2CCCN2C(=O)[C@H](Cc2cccc(Cl)c2)NC(=O)[C@H](Cc2c[nH]c3ccc(F)cc23)NC(=O)CNC(=O)[C@H](CCCCN)NC(=O)CCSCc2cccc(c2)CSC[C@@H](C(N)=O)NC(=O)[C@@H]2CCCN2C(=O)[C@H](Cc2ccc(O)cc2)NC1=O [Compound 005] ([Mpa]KG[Trp(5-F)][Phe(3-Cl)]PAYPC-NH2; linker 1-10 via mXylylene),100 to 1000
5,C[C@@H]1NC(=O)[C@@H]2CCCN2C(=O)[C@H](Cc2ccc(C(F)(F)F)cc2)NC(=O)[C@H](Cc2c[nH]c3ccc(F)cc23)NC(=O)CNC(=O)[C@H](CCCCN)NC(=O)CCSCc2cccc(c2)CSC[C@@H](C(N)=O)NC(=O)[C@@H]2CCCN2C(=O)[C@H](Cc2ccc(O)cc2)NC1=O [Compound 007] ([Mpa]KG[Trp(5-F)][Phe(4-CF3)]PAYPC-NH2; linker 1-10 via mXylylene),1000 to 12100
6,C[C@@H]1NC(=O)[C@@H]2CCCN2C(=O)[C@H](C2Cc3ccccc3C2)NC(=O)[C@H](Cc2c[nH]c3ccc(F)cc23)NC(=O)CNC(=O)[C@H](CCCCN)NC(=O)CCSCc2cccc(c2)CSC[C@@H](C(N)=O)NC(=O)[C@@H]2CCCN2C(=O)[C@H](Cc2ccc(O)cc2)NC1=O [Compound 008] ([Mpa]KG[Trp(5-F)][Igl]PAYPC-NH2; linker 1-10 via mXylylene),100 to 1000
7,C[C@@H]1NC(=O)[C@@H]2CCCN2C(=O)CN(Cc2ccc(I)cc2)C(=O)[C@H](Cc2c[nH]c3ccc(F)cc23)NC(=O)CNC(=O)[C@H](CCCCN)NC(=O)CCSCc2cccc(c2)CSC[C@@H](C(N)=O)NC(=O)[C@@H]2CCCN2C(=O)[C@H](Cc2ccc(O)cc2)NC1=O [Compound 010] ([Mpa]KG[Trp(5-F)][NBzl(4-I)Gly]PAYPC-NH2; linker 1-10 via mXylylene),100 to 1000
8,COc1ccc(C[C@@H]2NC(=O)[C@H](Cc3c[nH]c4ccc(F)cc34)NC(=O)CNC(=O)[C@H](CCCCN)NC(=O)CCSCc3cccc(c3)CSC[C@@H](C(N)=O)NC(=O)[C@@H]3CCCN3C(=O)[C@H](Cc3ccc(O)cc3)NC(=O)[C@H](C)NC(=O)[C@@H]3CCCN3C2=O)cc1 [Compound 018] ([Mpa]KG[Trp(5-F)]Y(Me)PAYPC-NH2; linker 1-10 via mXylylene),100 to 1000
9,C[C@@H]1NC(=O)[C@@H]2CCCN2C(=O)[C@H](Cc2ccccn2)NC(=O)[C@H](Cc2c[nH]c3ccc(F)cc23)NC(=O)CNC(=O)[C@H](CCCCN)NC(=O)CCSCc2cccc(c2)CSC[C@@H](C(N)=O)NC(=O)[C@@H]2CCCN2C(=O)[C@H](Cc2ccc(O)cc2)NC1=O [Compound 019] ([Mpa]KG[Trp(5-F)][2Pal]PAYPC-NH2; linker 1-10 via mXylylene),21000 to 50000
10,C[C@@H]1NC(=O)[C@@H]2CCCN2C(=O)[C@H](Cc2cccnc2)NC(=O)[C@H](Cc2c[nH]c3ccc(F)cc23)NC(=O)CNC(=O)[C@H](CCCCN)NC(=O)CCSCc2cccc(c2)CSC[C@@H](C(N)=O)NC(=O)[C@@H]2CCCN2C(=O)[C@H](Cc2ccc(O)cc2)NC1=O [Compound 020] ([Mpa]KG[Trp(5-F)][3Pal]PAYPC-NH2; linker 1-10 via mXylylene),21000 to 50000
11,C[C@@H]1NC(=O)[C@@H]2CCCN2C(=O)[C@H](Cc2ccncc2)NC(=O)[C@H](Cc2c[nH]c3ccc(F)cc23)NC(=O)CNC(=O)[C@H](CCCCN)NC(=O)CCSCc2cccc(c2)CSC[C@@H](C(N)=O)NC(=O)[C@@H]2CCCN2C(=O)[C@H](Cc2ccc(O)cc2)NC1=O [Compound 021] ([Mpa]KG[Trp(5-F)][4Pal]PAYPC-NH2; linker 1-10 via mXylylene),100 to 1000
12,C[C@@H]1NC(=O)[C@@H]2CCCN2C(=O)[C@](C)(Cc2c[nH]c3ccccc23)NC(=O)[C@H](Cc2c[nH]c3ccc(F)cc23)NC(=O)CNC(=O)[C@H](CCCCN)NC(=O)CCSCc2cccc(c2)CSC[C@@H](C(N)=O)NC(=O)[C@@H]2CCCN2C(=O)[C@H](Cc2ccc(O)cc2)NC1=O [Compound 023] ([Mpa]KG[Trp(5-F)][αMeW]PAYPC-NH2; linker 1-10 via mXylylene),1000 to 12100
13,C[C@@H]1NC(=O)[C@@H]2CCCN2C(=O)[C@H](Cc2c[nH]c3ccc(F)cc23)NC(=O)[C@H](Cc2c[nH]c3ccc(F)cc23)NC(=O)[C@@H](C)NC(=O)C2(CCCC2)NC(=O)CCSCc2cccc(c2)CSCCNC(=O)[C@@H]2CCCN2C(=O)[C@H](Cc2ccc(O)cc2)NC1=O [Compound 030] (cyclo(AYP[X1][Ac5c][dA][Trp(5-F)][Trp(5-F)]P)),100 to 1000
14,C[C@@H]1NC(=O)[C@@H]2CCCN2C(=O)[C@H](Cc2c[nH]c3ccc(F)cc23)NC(=O)[C@H](Cc2c[nH]c3ccc(F)cc23)NC(=O)[C@@H](C)NC(=O)C2(CCOCC2)NC(=O)CCSCc2cccc(c2)CSCCNC(=O)[C@@H]2CCCN2C(=O)[C@H](Cc2ccc(O)cc2)NC1=O [Compound 031] (cyclo(AYP[X1][Thp][dA][Trp(5-F)][Trp(5-F)]P)),100 to 1000
15,C[C@@H]1NC(=O)[C@@H]2CCCN2C(=O)[C@H](Cc2c[nH]c3ccc(F)cc23)NC(=O)[C@H](Cc2c[nH]c3ccc(F)cc23)NC(=O)CNC(=O)[C@H](CCCCN)NC(=O)CCSCc2cccc(c2)CSC[C@@H](C(N)=O)NC(=O)[C@@H]2CCCN2C(=O)[C@@H]2CCCN2C1=O [Compound 032] ([Mpa]KG[Trp(5-F)][Trp(5-F)]PAPPC-NH2; linker 1-10 via mXylylene),100 to 1000
16,NCCCC[C@@H]1NC(=O)CCSCc2cccc(c2)CSC[C@@H](C(N)=O)NC(=O)[C@@H]2CCCN2C(=O)[C@@H]2CCCN2C(=O)[C@@H]2CCCN2C(=O)[C@@H]2CCCN2C(=O)[C@H](Cc2c[nH]c3ccc(F)cc23)CC(=O)[C@H](Cc2c[nH]c3ccc(F)cc23)NC(=O)CNC1=O [Compound 033],1000 to 12100
17,C[C@@H]1NC(=O)[C@@H]2CCCCN2C(=O)[C@H](Cc2c[nH]c3ccc(F)cc23)NC(=O)[C@H](Cc2c[nH]c3ccc(F)cc23)NC(=O)[C@@H](C)NC(=O)[C@H](CCCCN)NC(=O)CCSCc2cccc(c2)CSC[C@@H](C(N)=O)NC(=O)[C@@H]2CCCN2C(=O)[C@H](Cc2ccc(O)cc2)NC1=O [Compound 035] ([Mpa]K[dA][Trp(5-F)][Trp(5-F)][Pip]AYPC-NH2; linker 1-10 via mXylylene),100 to 1000
18,C[C@@H]1NC(=O)[C@@H]2C[C@@H](F)CN2C(=O)[C@H](Cc2c[nH]c3ccc(F)cc23)NC(=O)[C@H](Cc2c[nH]c3ccc(F)cc23)NC(=O)[C@@H](C)NC(=O)[C@H](CCCCN)NC(=O)CCSCc2cccc(c2)CSC[C@@H](C(N)=O)NC(=O)[C@@H]2CCCN2C(=O)[C@H](Cc2ccc(O)cc2)NC1=O [Compound 037] ([Mpa]K[dA][Trp(5-F)][Trp(5-F)][Pro(trans-4-F)]AYPC-NH2; linker 1-10 via mXylylene),100 to 1000
19,C[C@@H]1NC(=O)[C@@H]2C=CCN2C(=O)[C@H](Cc2c[nH]c3ccc(F)cc23)NC(=O)[C@H](Cc2c[nH]c3ccc(F)cc23)NC(=O)[C@@H](C)NC(=O)[C@H](CCCCN)NC(=O)CCSCc2cccc(c2)CSC[C@@H](C(N)=O)NC(=O)[C@@H]2CCCN2C(=O)[C@H](Cc2ccc(O)cc2)NC1=O [Compound 038] ([Mpa]K[dA][Trp(5-F)][Trp(5-F)][ΔPro]AYPC-NH2; linker 1-10 via mXylylene),100 to 1000
20,C[C@H]1NC(=O)[C@H]2CCCN2C(=O)[C@H](Cc2c[nH]c3ccc(F)cc23)NC(=O)[C@H](Cc2c[nH]c3ccc(F)cc23)NC(=O)CNC(=O)[C@H](CCCCN)NC(=O)CCSCc2cccc(c2)CSCCNC(=O)C2CCCN2C(=O)[C@H](Cc2ccc(O)cc2)NC1=O (stereo partly shown) [Compound 040] (cyclo(G[Trp(5-F)][Trp(5-F)][dP][dA]Y[ξP][X1]K)),1 to 100
21,C[C@@H]1NC(=O)[C@@H]2CCCN2C(=O)[C@H](Cc2c[nH]c3ccc(F)cc23)NC(=O)[C@H](Cc2c[nH]c3ccc(F)cc23)NC(=O)[C@@H](C)NC(=O)[C@@H]2CCCN2C(=O)CCSCc2cccc(c2)CSCCNC(=O)[C@@H]2CCCN2C(=O)[C@H](Cc2ccccc2)N(C)C1=O [Compound 051] (cyclo(A[NMeF]P[X1]P[dA][Trp(5-F)][Trp(5-F)]P)),1 to 100
22,C[C@@H]1NC(=O)[C@@H]2CCCN2C(=O)[C@H](Cc2c[nH]c3ccc(F)cc23)NC(=O)[C@H](Cc2c[nH]c3ccc(F)cc23)NC(=O)[C@@H](C)NC(=O)[C@@H]2CCCN2C(=O)CCSCc2cccc(c2)CSCCNC(=O)[C@@H]2CCCN2C(=O)[C@H](Cc2ccc(O)cc2)N(C)C1=O [Compound 052] (cyclo(A[NMeY]P[X1]P[dA][Trp(5-F)][Trp(5-F)]P)),100 to 1000
